PMC5526615, “Phenotypic, chemical and functional characterization of cyclic nucleotide phosphodiesterase 4 (PDE4) as a potential anthelmintic drug target” (PLoS Neglected Tropical Diseases, 2017)
Where “and” joins values, the source holds several entries; their conditions need not be identical. Equal values may be shown once. Read-outs that look alike come from different tables or passages of the source.

Tests used:
adult S. mansoni = assay: Wormassay adult worm motility; format: cell-based; details: Schistosoma mansoni, 1 h, read-out: Adult motility (-fold increase vs. DMSO controls)
Procedure: Adult schistosome screens were performed in 24-well plates (Corning Inc., cat. # 3544) using five worm pairs per well in a final volume of 2 ml of the above Basch medium. Compound was added in a volume of 1 μl DMSO such that the final concentration was 10 μM. Incubations were maintained for 3 days at 37°C under 5% CO2.
Parasite responses to chemical insult were adjudicated visually every 24 h (also at the 1 h time point for adults) using an inverted microscope and employed a constrained nomenclature of phenotype descriptors (e.g., rounding, degeneration, overactivity and slowed motility) as described. For adult parasites, in addition to observation-based annotations, we employed Wormassay to measure worm motility. Briefly, Wormassay comprises a commodity digital movie camera connected to an Apple personal computer that operates an open source software application to automatically process multiple wells (in 6-, 12- or 24-well plate formats). The application detects worm-induced changes in the occupation and vacancy of pixels between frames (outputted as an average ± S.D.). Worm motion was quantified using the “Consensus Voting Luminance Difference” option.

SmPDE4A = SmPDE4A (Schistosoma mansoni, UniProt A0A5K4ENE3); assay: biochemical
Chain of SmPDE4A (A0A5K4ENE3 entry or part of it): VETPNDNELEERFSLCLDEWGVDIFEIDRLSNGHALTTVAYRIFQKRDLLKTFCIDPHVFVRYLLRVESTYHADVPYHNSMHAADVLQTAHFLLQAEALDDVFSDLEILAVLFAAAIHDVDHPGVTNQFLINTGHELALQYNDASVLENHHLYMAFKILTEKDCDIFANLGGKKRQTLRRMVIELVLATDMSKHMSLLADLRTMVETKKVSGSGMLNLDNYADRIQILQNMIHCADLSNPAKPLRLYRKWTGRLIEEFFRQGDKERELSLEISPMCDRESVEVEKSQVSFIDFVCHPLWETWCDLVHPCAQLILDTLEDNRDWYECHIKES
Procedure: Assays were performed in triplicate, and IC50 values were determined by non-linear regression analysis using the four-parameter logistic equation (Prism GraphPad version. 6.03).
Assay of PDE4 enzymatic activity was as described: huPDE4B2 was purchased from Proteros Biostructures, GmbH, Martinsried, Germany. […] The precipitate was collected by filtration onto Multi-Screen HTS FB plates (Millipore, Billerica, MA), washed and then dried for quantitation of radioactivity. For tests with PDE4 inhibitors, fifty percent inhibitory concentration (IC50) values were calculated based on a four-parameter logistic equation: the means and number of replicates are reported in Fig 4.

huPDE4B2 = target: T1, huPDE4B2 (Homo sapiens, UniProt Q07343); assay: PDE4 inhibition assay, huPDE4B2 catalytic domain ([3H]-cAMP hydrolysis); format: biochemical; details: Anacor's in-house data, mean ± SD (number of assays) or two single assay values, read-out: Human PDE4B2 IC50
T1 construct: performed using the catalytic domains of (A) huPDE4B2 (NP_001032416.1); purchased Proteros Biostructures, GmbH, Martinsried, Germany
T1 sequence (Q07343 324-659): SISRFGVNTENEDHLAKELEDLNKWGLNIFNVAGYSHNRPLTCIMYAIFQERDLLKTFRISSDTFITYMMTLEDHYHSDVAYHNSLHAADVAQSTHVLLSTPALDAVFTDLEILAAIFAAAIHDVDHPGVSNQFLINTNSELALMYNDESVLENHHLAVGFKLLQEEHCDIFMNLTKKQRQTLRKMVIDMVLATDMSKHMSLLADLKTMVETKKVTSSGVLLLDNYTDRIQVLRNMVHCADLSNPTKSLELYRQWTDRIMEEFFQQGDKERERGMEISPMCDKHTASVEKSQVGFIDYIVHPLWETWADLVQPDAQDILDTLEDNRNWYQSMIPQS
Procedure: Assays with each inhibitor were performed using the catalytic domains of (A) huPDE4B2 (NP_001032416.1) and (B) SmPDE4A (Smp_134140).
Assay of PDE4 enzymatic activity was as described [96]: huPDE4B2 was purchased from Proteros Biostructures, GmbH, Martinsried, Germany. […] The precipitate was collected by filtration onto Multi-Screen HTS FB plates (Millipore, Billerica, MA), washed and then dried for quantitation of radioactivity.

[1] = test system: WT C. elegans (N2 Bristol); assay: C. elegans motility assay (body bends), wild type; format: cell-based, Caenorhabditis elegans; details: 100 μM, 16 h
Procedure: (§1) Compounds were directly added onto the OP50 food source at a 100 μM final concentration or the equivalent 0.2% DMSO as control. Previously synchronized early L4 stage larvae were cultivated on NGM plates with OP50 and compounds at 20°C for 16 h. For each experimental condition and transgenic line, motility was measured for 10–20 animals. The animals were washed twice in S basal buffer, transferred onto a new NGM plate in the absence of bacteria. After a brief period of recovery from this manipulation, locomotion was measured by counting the number of body bends in 30 s intervals under a stereoscope.

huPDE4A = huPDE4A ref 96; cited from earlier work
huPDE4D = huPDE4D ref 96; cited from earlier work
huPDE4B = huPDE4B ref 96; cited from earlier work
[2] = test system: pde4(ce268);smpde4a(a) and pde4(ce268);smpde4a(b) transgenic C. elegans; assay: C. elegans motility assay (body bends), transgenic lines expressing smpde4a; format: cell-based, Caenorhabditis elegans; details: 100 μM, 16 h
Procedure: To generate C. elegans that carry the SmPDE4A transgene, the plasmids described above were purified and microinjected into the gonads of both WT (N2) and pde4(ce268) mutant strains at a concentration of 50 ng/μl. The injected worms (P0) were transferred to individual freshly seeded bacteria plates and allowed to reproduce. F1 progeny were screened for evidence of transgene expression based on the GFP marker. Each transgenic F1 was then singled onto a new plate. This process was repeated until lines that stably transmit the transgene were established in WT or pde(ce268) animal backgrounds. To verify the consistency of GFP expression in the transgenic lines, 10–20 transgenic animals from each line were examined using a Zeiss Axioplan II stereoscope equipped with a FITC/GFP filter (emission 500–515 nm).
as §1, with “The animals were washed twice in S basal buffer, transferred onto a new NGM plate in the absence of bacteria.” left out

[3] = recombinant catalytic domain, mean ± SD (number of assays) or two single assay values, read-out: SmPDE4A IC50
[4] = SmPDE4A IC50, recombinant catalytic domain, mean ± SD (number of assays) or two single assay values

IC50 (SmPDE4A; [3]) [nM] | IC50 (huPDE4B2) | Compound | fold induction at 10 µM (adult S. mansoni; Wormassay, 10 μM after 1 h) | other results
123 | 19.3 nM and 32.4 nM | N#Cc1ccc(Oc2ccc3c(c2)COB3O)cc1O [Compound 7] | 1.1 | –
– | – | CC(=O)CCCOc1nc(Oc2ccc3c(c2)COB3O)c(Cl)cc1C#N [Compound 2] | 7.9 | motility relative to the DMSO control [1]: increased motility
– | – | Nc1ncnc2c1ncn2[C@@H]1O[C@@H]2COP(=O)(O)O[C@H]2[C@H]1O [cAMP, cyclic adenosine monophosphate] | – | Km (huPDE4A): 0.98 µM; Km (huPDE4D): 7.81 µM; Km (huPDE4B): 2.25 µM
– | – | COc1ccc(C2CNC(=O)C2)cc1OC1CCCC1 (stereo not shown) [Rolipram, rolipram, reference compound] | – | motility of mutant lines carrying the smpde4a transgene [2]: increased motility significantly; IC50 (SmPDE4A; recombinant catalytic domain, read-out: SmPDE4A IC50): > 10000 nM
12 ± 6.2 | 3.8 ± 2.7 nM | CC(C)OCCOc1nc(Oc2ccc3c(c2)COB3O)ccc1C#N [Compound 4] | 5.7 | motility relative to the DMSO control [1]: did not
– | – | CC(=O)CCCOc1nc(Oc2cc(F)c3c(c2)COB3O)c(Cl)cc1C#N [Compound 1] | 9.9 | –
– | – | O=C(Nc1c(Cl)cncc1Cl)c1ccc(OC(F)F)c(OCC2CC2)c1 [Roflumilast, roflumilast, reference compound] | – | IC50 (SmPDE4A; [4]): 11.3 nM and 18 nM and 11 nM
14.7 ± 6.4 | 30 ± 26.7 nM | CN(C)C(=O)CCCOc1nc(Oc2ccc3c(c2)COB3O)ccc1C#N [Compound 3] | 7.1 | –
415 | 43.6 nM and 65 nM | CC(C)S(=O)(=O)c1ccc(Oc2ccc3c(c2)COB3O)cc1 [Compound 6] | 1.5 | –

Compound | IC50 (SmPDE4A; [3]) [nM] | IC50 (huPDE4B2) | fold induction at 10 µM (adult S. mansoni; Wormassay, 10 μM after 1 h) | other results
N#Cc1ccc(Oc2ccc3c(c2)COB3O)cc1C(F)(F)F [Compound 5] | – | 68.9 nM and 22.1 nM | – | fold induction at 10 µM (adult S. mansoni): 3.9; IC50 (SmPDE4A; [4]): 47 ± 27.4 nM
